In ChEMBL document CHEMBL1201862, “PubChem BioAssay data set” (2004):
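In this assay, cells in 96-well plates receive the compound at five concentrations for 48 hours. Endpoints are linearly interpolated between the surrounding concentrations. Abbreviation: GI50, concentration required for 50% inhibition of growth.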 Calls of active or inactive are those of the source. Rule as the data show it: active = GI50 up to about 1.1 µM and inactive = higher.

Assays:
Assay in all cases: NCI tumour cell line growth inhibition, 48 h
UACC-62 = test system: UACC-62
OVCAR-5 = test system: OVCAR-5
CCRF-CEM = test system: CCRF-CEM
SN12C = test system: SN12C
KM12 = test system: KM12
LOX IMVI = test system: LOX IMVI
HL-60 = test system: HL-60
Hs-578T = test system: Hs-578T
HOP-92 = test system: HOP-92
MDA-N = test system: MDA-N
SNB-75 = test system: SNB-75
MOLT-4 = test system: MOLT-4
NCI/ADR-RES = test system: NCI/ADR-RES
MDA-MB-231 = test system: MDA-MB-231
HCT-116 = test system: HCT-116
OVCAR-4 = test system: OVCAR-4
CAKI-1 = test system: CAKI-1
PC-3 = test system: PC-3
SF-268 = test system: SF-268
RPMI-8226 = test system: RPMI-8226

SMILES	GI50 (UACC-62)	GI50 (OVCAR-5)	GI50 (CCRF-CEM)	GI50 (SN12C)	GI50 (KM12)	GI50 (LOX IMVI)	GI50 (HL-60)	GI50 (Hs-578T)	GI50 (HOP-92)	GI50 (MDA-N)	GI50 (SNB-75)	GI50 (MOLT-4)	GI50 (NCI/ADR-RES)	GI50 (MDA-MB-231)	GI50 (HCT-116)	GI50 (OVCAR-4)	GI50 (CAKI-1)	GI50 (PC-3)	GI50 (SF-268)	GI50 (RPMI-8226)
Cc1ccc(Cc2nnc(S)[nH]2)cc1	> 100 µM (inactive)	> 100 µM (inactive)	56.6 µM (inactive)	> 100 µM (inactive)	79.1 µM (inactive)	74 µM (inactive)	25.8 µM (inactive)	47.2 µM (inactive)	> 100 µM (inactive)	> 100 µM (inactive)	> 100 µM (inactive)	> 100 µM (inactive)	77.6 µM (inactive)	> 100 µM (inactive)	54.8 µM (inactive)	32.3 µM (inactive)	> 100 µM (inactive)	> 100 µM (inactive)	–	–
COc1ccc(C(SCCO)(c2ccccc2)c2ccccc2)cc1	14.3 µM (inactive)	16.9 µM (inactive)	15.5 µM (inactive)	12.8 µM (inactive)	14.1 µM (inactive)	18.1 µM (inactive)	22.8 µM (inactive)	22.3 µM (inactive)	11 µM (inactive)	8.26 µM (inactive)	12.2 µM (inactive)	15.7 µM (inactive)	14.8 µM (inactive)	14.3 µM (inactive)	10.9 µM (inactive)	15.6 µM (inactive)	15.5 µM (inactive)	11.9 µM (inactive)	14.6 µM (inactive)	–
COc1ccc(/C=N/n2c(Cc3ccc(Cl)cc3)n[nH]c2=O)c(OC)c1	24.9 µM (inactive)	38.3 µM (inactive)	> 100 µM (inactive)	> 10 µM (inactive)	27.3 µM (inactive)	60.5 µM (inactive)	–	14.3 µM (inactive)	29.2 µM (inactive)	57.9 µM (inactive)	15.9 µM (inactive)	> 100 µM (inactive)	12.3 µM (inactive)	52.5 µM (inactive)	> 100 µM (inactive)	16 µM (inactive)	45.4 µM (inactive)	28.8 µM (inactive)	13.5 µM (inactive)	> 100 µM (inactive)
C=CCc1oc(C)nc1CCCC	> 100 µM (inactive)	> 100 µM (inactive)	> 100 µM (inactive)	> 100 µM (inactive)	> 100 µM (inactive)	> 100 µM (inactive)	> 100 µM (inactive)	> 100 µM (inactive)	> 100 µM (inactive)	> 100 µM (inactive)	> 100 µM (inactive)	> 100 µM (inactive)	> 100 µM (inactive)	> 100 µM (inactive)	> 100 µM (inactive)	> 100 µM (inactive)	> 100 µM (inactive)	> 100 µM (inactive)	> 100 µM (inactive)	–
CC(=O)Oc1cc2c(n(C)c1=O)-c1ccccc1C2	75.3 µM (inactive)	> 100 µM (inactive)	34.2 µM (inactive)	> 100 µM (inactive)	> 100 µM (inactive)	29.4 µM (inactive)	–	65 µM (inactive)	46.7 µM (inactive)	> 100 µM (inactive)	> 100 µM (inactive)	66.8 µM (inactive)	23.2 µM (inactive)	61.4 µM (inactive)	34.7 µM (inactive)	32.5 µM (inactive)	29.1 µM (inactive)	40.8 µM (inactive)	44.1 µM (inactive)	> 100 µM (inactive)
Cc1c[nH]c(C(=O)O)c1-c1ccc2c(-c3ccccc3)nc3ccccc3n12	20.7 µM (inactive)	36 µM (inactive)	36.3 µM (inactive)	30.7 µM (inactive)	20 µM (inactive)	27.1 µM (inactive)	–	18.6 µM (inactive)	32.9 µM (inactive)	19 µM (inactive)	17.5 µM (inactive)	34.2 µM (inactive)	17.2 µM (inactive)	32.9 µM (inactive)	34.8 µM (inactive)	41 µM (inactive)	34.7 µM (inactive)	27.4 µM (inactive)	28.2 µM (inactive)	–
COc1cccc2c1C(=O)c1c(O)c3c(c(O)c1C2=O)CC(O)(C(O)CO)CC3OC1CC(N2CCOCC2)C(O)C(C)O1 (centres undefined)	< 0.001 µM (active)	0.00475 µM (active)	0.00849 µM (active)	0.00205 µM (active)	0.00551 µM (active)	–	–	0.0146 µM (active)	0.065 µM (active)	0.0143 µM (active)	0.00388 µM (active)	–	0.0162 µM (active)	0.0165 µM (active)	< 0.001 µM (active)	0.00337 µM (active)	0.00175 µM (active)	0.0123 µM (active)	0.00231 µM (active)	0.00378 µM (active)
